Source: patent US10793557B2, “Sting agonist compounds” (Merck Sharp & Dohme Corp., priority 2018, dated 2020)

Experiments:
full-length WT STING = target: T1, full-length WT STING (Homo sapiens, UniProt Q86WV6, H232R); assay: 3H-cGAMP filtration binding assay (WT STING); settings: competition with tritiated cGAMP, WT STING membrane
T1 construct: AviTag (after gg linker) (C); HRV3C cleavage site (after gs linker) (C); HIS8 (C); made in house; host or cells: Trichoplusia ni (Hi-Five) insect cells infected with baculovirus (virus generated and amplified in Sf21 cells); used as a washed membrane preparation
Procedure, shortened: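 Competitive filtration binding of [3H]cGAMP (16 nM working stock) to T. ni membranes overexpressing full-length WT human STING, 60 min at RT in PBS. Bound radioactivity counted after GF/B filtration; 10-point 1:3 titration, EC50 from 4-parameter fit after control normalisation.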

[1] = test system: secretion of interferon-beta from THP1 cells; assay: IFN-β secretion in THP1 cell culture (5 h); format: cell-based; settings: Homo sapiens, THP-1, 5 h, 30 uM cGAMP = 100%; for activation at 30 µM: compound at 30 μM, read-out: % Effect at 30 μM relative to 2′3′-cGAMP; for activation at 3 µM: compound at 3 uM, read-out: % Effect relative to 2′3′-cGAMP (@ 3 uM)
Procedure, shortened: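 Thawed THP1 cells (0.8×10^6/mL, RPMI with 0.5% FBS) exposed to compounds 1.5–30000 nM (0.3% DMSO) for 5 h at 37 °C. Supernatant IFN-β quantified by AlphaLISA. Percent effect normalised to 30 uM cGAMP and DMSO controls; EC50 from 4-parameter fit.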

full-length HAQ STING = target: T2, full-length HAQ STING (Homo sapiens, UniProt Q86WV6, G230A/H232R/R293Q/R71H); assay: 3H-cGAMP filtration binding assay (HAQ STING); settings: competition with tritiated cGAMP, HAQ STING membrane
T2 construct: AviTag (after GG linker) (C); HRV3C cleavage site (after GS linker) (C); HIS8 (C); made in house; host or cells: Trichoplusia ni (Hi-Five) insect cells infected with baculovirus (virus generated and amplified in Sf21 cells); used as a washed membrane preparation
Procedure, shortened: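 Hi-Five (T. ni) membranes overexpressing the STING variant (2.2 ug/ml working) preincubated with compound 60 min at RT in PBS, then [3H]cGAMP (8 nM working stock) added for 60 min at RT. Bound radioactivity captured on GF/B filters and counted by scintillation; EC50 from 4-parameter fit of control-normalized activity.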

T1 sequence (Q86WV6 with tags, fused parts or gaps H232R): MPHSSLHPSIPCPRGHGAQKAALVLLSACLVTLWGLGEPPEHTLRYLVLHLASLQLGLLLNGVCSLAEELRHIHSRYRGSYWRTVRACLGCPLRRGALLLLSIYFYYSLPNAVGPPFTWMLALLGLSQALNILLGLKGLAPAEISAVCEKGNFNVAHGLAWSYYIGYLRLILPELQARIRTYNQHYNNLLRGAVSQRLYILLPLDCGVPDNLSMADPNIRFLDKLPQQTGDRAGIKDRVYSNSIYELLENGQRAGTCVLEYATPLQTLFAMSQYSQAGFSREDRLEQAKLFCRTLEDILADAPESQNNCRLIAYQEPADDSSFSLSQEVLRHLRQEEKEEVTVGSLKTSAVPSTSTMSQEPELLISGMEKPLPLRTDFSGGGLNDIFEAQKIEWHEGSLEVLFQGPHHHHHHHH
T2 sequence (Q86WV6 with tags, fused parts or gaps R71H/G230A/H232R/R293Q): as the sequence (Q86WV6 with tags, fused parts or gaps H232R) above, with R71H, G230A, R293Q counted along it

SMILES | EC50 (full-length WT STING) [nM] | activation at 30 µM [1] [%] | EC50 (full-length HAQ STING) [nM] | activation at 3 µM [1] [%]
COc1cc2sc(C(=O)CCC(=O)O)cc2c(F)c1OCCCOc1c(OC)cc2sc(C(=O)C[C@H](C)C(=O)O)cc2c1F [Example 64, (S)-4-(5-(3-((2-(3-carboxypropanoyl)-4-fluoro-6-methoxybenzo[b]thiophen-5-yl)oxy)propoxy)-4-fluoro-6-methoxybenzo[b]thiophen-2-yl)-2-methyl-4-oxobutanoic acid] | 4 | 58 | 2 | –
COc1cc2sc(C(=O)C[C@H](C)C(=O)O)cc2c(Cl)c1OCCCCOc1c(OC)cc2sc(C(=O)C[C@H](C)C(=O)O)cc2c1Cl [Example 172, (2S,2′S)-4,4′-(5,5′-(butane-1,4-diylbis(oxy))bis(4-chloro-6-methoxybenzo[b]thiophene-5,2-diyl))bis(2-methyl-4-oxobutanoic acid)] | 15100 | – | 454 | 16
COc1cc2sc(C(=O)C[C@H](C)C(=O)O)cc2cc1CCCOc1nc2cc(C(=O)C[C@H](C)C(=O)O)sc2cc1OC [Example 16, (S)-4-(5-(3-(2-((S)-3-carboxybutanoyl)-6-methoxybenzo [b]thiophen-5-yl)propoxy)-6-methoxythieno[3,2-b]pyridin-2-yl)-2-methyl-4-oxobutanoic acid] | 51 | 70 | 22 | –
COc1cc2sc(C(=O)CCC(=O)O)cc2nc1CCCOc1c(OC)cc2sc(C(=O)CCC(=O)O)cc2c1F [Example 173] | 3 | 127 | 1 | –
COc1cc2sc(C(=O)CCC(=O)O)cc2cc1OCCOc1c(OC)cc2sc(C(=O)C[C@H](C)C(=O)O)cc2c1F [Example 34, (S)-4-(5-(2-((2-(3-carboxypropanoyl)-6-methoxybenzo [b]thiophen-5-yl)oxy)ethoxy)-4-fluoro-6-methoxybenzo[b]thiophen-2-yl)-2-methyl-4-oxobutanoic acid] | 4 | 72 | 3 | –
COc1cc2sc(C(=O)CCC(=O)O)cc2c(F)c1OCCOc1c(OC)cc2sc(C(=O)C[C@H](C)C(=O)O)cc2c1F [Example 63, (S)-4-(5-(2-((2-(3-carboxypropanoyl)-4-fluoro-6-methoxybenzo[b]thiophen-5-yl)oxy)ethoxy)-4-fluoro-6-methoxybenzo[b]thiophen-2-yl)-2-methyl-4-oxobutanoic acid] | 4 | 62 | 1 | –
COc1cc2sc(CC[C@H](C)C(=O)O)cc2c(F)c1OCCCCOc1c(OC)cc2sc(C(=O)C[C@H](C)C(=O)O)cc2c1F [Example 124, (S)-4-(5-(4-((2-((S)-3-carboxybutyl)-4-fluoro-6-methoxybenzo[b]thiophen-5-yl)oxy)butoxy)-4-fluoro-6-methoxybenzo[b]thiophen-2-yl)-2-methyl-4-oxobutanoic acid] | 3060 | – | 263 | 45
COc1cc2sc(CC[C@H](C)C(=O)O)cc2cc1OCCCOc1c(OC)cc2sc(C(=O)C[C@H](C)C(=O)O)cc2c1F [Example 158, (S)-4-(5-(3-((2-((S)-3-carboxybutyl)-6-methoxybenzo[b]thiophen-5-yl)oxy)propoxy)-4-fluoro-6-methoxybenzo[b]thiophen-2-yl)-2-methyl-4-oxobutanoic acid] | 32 | 43 | 2 | –
COc1cc2cc(C(=O)C[C@H](C)C(=O)O)sc2cc1OCCCOc1c(OC)cc2sc(C(=O)[C@@H]3CC[C@H]3C(=O)O)cc2c1F [Example 171, trans-2-(5-(3-((2-((S)-3-carboxybutanoyl)-5-methoxybenzo[b]thiophen-6-yl)oxy)propoxy)-4-fluoro-6-methoxybenzo[b]thiophene-2-carbonyl)cyclobutanecarboxylic acid] | 59 | 97 | 9 | –
